Assay results: article PMC8721105, “Novel Trypanocidal Inhibitors that Block Glycosome Biogenesis by Targeting PEX3–PEX19 Interaction” (Frontiers in Cell and Developmental Biology, 2021)
Values joined by “and” are separate entries in the source; they are usually repeats but may differ in a detail not shown here. Identical values can stand only once. “Also recorded” adds a separate entry of the source. Like-named read-outs stand apart in the source and are kept apart here.

Assays:
[1] = target: TbPEX3–TbPEX19 interaction (Trypanosoma brucei brucei, UniProt Q383Q3); assay: AlphaScreen TbPEX3–TbPEX19 inhibitor screening and dose response; format: binding
Chain of TbPEX3–TbPEX19 interaction (Q383Q3 entry or part of it, other chains not shown): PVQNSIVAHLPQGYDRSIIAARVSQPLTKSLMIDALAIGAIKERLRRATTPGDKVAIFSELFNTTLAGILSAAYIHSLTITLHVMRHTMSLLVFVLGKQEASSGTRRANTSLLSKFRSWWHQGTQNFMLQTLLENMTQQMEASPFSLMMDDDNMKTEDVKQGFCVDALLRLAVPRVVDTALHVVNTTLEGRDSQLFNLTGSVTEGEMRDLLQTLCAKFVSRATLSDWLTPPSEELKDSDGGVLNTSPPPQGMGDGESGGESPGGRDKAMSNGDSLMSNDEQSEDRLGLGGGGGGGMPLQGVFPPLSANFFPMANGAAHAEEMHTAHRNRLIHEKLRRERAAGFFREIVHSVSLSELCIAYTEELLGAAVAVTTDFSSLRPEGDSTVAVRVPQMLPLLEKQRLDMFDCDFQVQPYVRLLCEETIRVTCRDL
Experimental: The above solutions were prepared in the reaction buffer [0.5% BSA v/v, 0.05% Tween 80 v/v, 0.2 mM DTT, PBS (pH7.4)] on the day of assay, diluting the compounds from 1 mM stocks in DMSO. Compounds were incubated with the proteins for 30 min at room temperature (RT). Five microliters of AlphaScreen Nickel-chelate acceptor beads (cat. no. 6760619C, PerkinElmer®) and AlphaScreen Glutathione donor beads (cat. no. 6765300, PerkinElmer®) were distributed to the mixture consecutively, with a 15-min interval. The complete 25-μl reaction solutions were incubated for 45 min at RT in the dark, and Alpha signals were captured with Cytation 5 plate reader (BioTek®) with the gain value set at 180. Schematic representation of the experiment setup of the high-throughput screening assays was prepared with BioRender.com.
Following initial hit selection, 10 μM of drugs were tested with GST-His (54 nM) and TbPEX19/TbPEX3 (5 nM) in smaller scale, and the level of signal was normalized (in %) and compared.

[2] = system: GST-TbPEX3d44; assay: NMR saturation transfer difference (STD) with GST-TbPEX3; format: binding, Trypanosoma brucei; conditions: for STD NMR effect with GST-TbPEX3: 10 μM protein, 300 µM ligand; for Target protein (NMR analysis): protein assigned as target, GST-TbPEX3, TbPEX19-His and GST-His tested
Experimental: (§1) NMR saturation transfer difference (STD) experiments ([Mayer and Meyer, 1999]) were carried out on a Bruker AVIII 600-MHz spectrometer equipped with a cryoprobe and a SampleJet auto sampler. One-dimensional (1D) and STD spectra were acquired at 298 K. Compounds were dissolved in DMSO-d6 to a final concentration of 50 mM. STD experiments with GST-TbPEX3, TbPEX19-His, and GST-His were performed in PBS (pH 7.4), 10% D2O at a protein concentration of 10 μM, and a ligand concentration of 300 µM. Saturation time and interscan delay within STD experiments were set to 2 and 2.5 s, respectively.

[3] = target: T1, GST-His (Schistosoma japonicum, UniProt P08515); assay: NMR saturation transfer difference (STD) with GST-His control; format: binding; conditions: 10 μM protein, 300 µM ligand
T1 construct: made in house; host or cells: E. coli BL21(DE3)
T1 sequence (P08515 whole entry): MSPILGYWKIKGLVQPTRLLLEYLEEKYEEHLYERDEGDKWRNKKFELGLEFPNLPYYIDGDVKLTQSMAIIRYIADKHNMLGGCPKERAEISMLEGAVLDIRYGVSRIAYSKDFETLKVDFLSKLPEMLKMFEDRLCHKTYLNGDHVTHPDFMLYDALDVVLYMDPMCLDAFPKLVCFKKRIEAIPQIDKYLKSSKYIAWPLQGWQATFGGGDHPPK
Experimental: as §1

[4] = system: T. brucei BSF427; assay: T. brucei cell viability, resazurin-based assay; design: species or system Trypanosoma brucei; conditions: BSF427, 3 days of incubation, resazurin, read-out: T. brucei toxicity (EC50)
Experimental: (§2) BSF strain Lister 427 (termed hereafter as BSF427) and cell line 90-13 (stably expressing Tet repressor) were used in this study. BSF cells were grown in HMI-11 medium and maintained in logarithmic phase [below 2 × 10^6 cells/ml as described in [Kalel et al. (2019)]]. Genomically integrated stable transfections were performed with NotI-linearized plasmid constructs (pGN1-TbPEX11), which integrate into the spacer region of the ribosomal RNA repeat locus in the genome of cell line 90-13, and the clones were selected using blasticidin as described previously ([Kalel et al., 2015]). Expression of TbPEX11-GFP was confirmed with fluorescence microscopy following induction tests (data not shown) with a serial dilution of tetracycline, and minimal concentration (5 ng/ml) of tetracycline was used to achieve expression of the protein in more than 80% of the cells.
T. brucei BSF427 and compound dilutions were mixed in 1 : 1 (v/v) ratio to total volume of 200 μl, to reach final concentrations of 2 × 10^3 cells/ml and 0.19–100 μM of inhibitors, in quadruplicates in 96-well plates. Culture medium with no cells was used as negative control and cultures without presence of compounds as positive control representing normal rate of cell growth. Cells were grown at 37°C in an incubator with humidified air containing 5% CO2 for 3 days. Cell viabilities were measured quantitatively using resazurin dye, by adding 25-µl resazurin (0.1 mg/ml in HBSS) to each well, and the mixture incubated for 6 h in the incubator. Fluorescence emission was detected at 570 and 585 nm after excitation at 530 nm, and fluorescence at 570 nm was subtracted from 585 nm. The inhibition curves were fitted with normalized fluorescence signal (in percentage) against concentration of compounds in Log10 scale using GraphPad Prism, and best fit was used for EC50 estimation. Chemical structures were drawn with ChemDraw 20.0.

[5] = system: T. brucei bloodstream form parasites; assay: Immunofluorescence microscopy of glycosomal aldolase localization; format: cell-based, Trypanosoma brucei; conditions: 24 h treatment; for Mislocalization (% of No. of cells) of aldolase: cultures with 50% of the growth rate of DMSO control
Experimental: BSF 90-13 cells with genomically integrated PEX11-GFP were induced with 5 ng/ml of tetracycline and cultured overnight to initiate stable expression of PEX11-GFP. BSF427- and PEX11-GFP–expressing cells were treated for 24 h with 100 μM, 50 and 25 μM of each of the inhibitor, and DMSO was used as control. Compound-treated cultures with growth rates of about 50% compared to the DMSO control were harvested and stained for immunofluorescence and statistical analysis. Cells were fixed with 4% paraformaldehyde in PBS containing 250 mM sucrose for 20 min. Fixed cells were immobilized on adhesive slide (StarFrost®) pre-coated with 10% (v/v) of poly-L-lysine (Sigma-Aldrich®) in water after 1-h incubation at RT. Cells were permeabilized with 0.1% (v/v) Triton X-100 in PBS (pH7.4) for 15 min and blocked in buffer D [PBS supplemented with 1% (w/v) BSA and 0.25% (v/v) Tween 20] for 1 h. Anti-TbAldolase primary antibody was used at 1:500 dilution in buffer D for 1.5 h incubation. After five washes in PBS for 30 min, samples were treated with Goat anti-rabbit secondary antibody (1:200, v/v, Alexa Fluor™ 594). Samples were washed, dried, and mounted with Mowiol containing 4′,6-diamidino-2-phenylindole (DAPI). Immuno-stained cells were visualized with Zeiss Elyra microscopy. Pictures of stack 3 (of 5), rotation 1 (of 3), and phase 5 (of 5) were chosen for all control and compound-treated samples.

[6] = ref ChemBridge, cited from earlier work; for Hacc (hydrogen bond acceptor) / Hdon (hydrogen bond donor): provided by the compound library supplier; for LogSw: supplier data
[7] = Cytotoxicity test on HepG2 cells; conditions: human, HepG2 cells, Human cell cytotoxicity (EC50), HepG2, serial dilutions of up to 200 µM
[8] = system: TbPEX19-His; assay: NMR saturation transfer difference (STD) with TbPEX19-His; format: binding, Trypanosoma brucei; conditions: 10 μM protein, 300 µM ligand
Experimental: as §1

[9] = system: PEX11-GFP–expressing BSF cells; assay: Immunofluorescence of PEX11-GFP–expressing BSF cells; format: cell-based, Trypanosoma brucei; conditions: 24 h treatment
Experimental: as §2
BSF 90-13 cells with genomically integrated PEX11-GFP were induced with 5 ng/ml of tetracycline and cultured overnight to initiate stable expression of PEX11-GFP. BSF427- and PEX11-GFP–expressing cells were treated for 24 h with 100 μM, 50 and 25 μM of each of the inhibitor, and DMSO was used as control. Compound-treated cultures with growth rates of about 50% compared to the DMSO control were harvested and stained for immunofluorescence and statistical analysis. […]

[10] = system: HepG2 cells; assay: Cytotoxicity test on HepG2 cells; conditions: read-out: Human cell cytotoxicity (EC50); HepG2, serial dilutions of up to 200 µM
[11] = system: BSF427 cells; assay: Digitonin fractionation of compound-treated BSF cells; conditions: 24 h treatment; 0.025 μg of digitonin/μg of total protein
Experimental: Pellets were resuspended in 420 μl of homogenization buffer and distributed evenly into four tubes each with 100 μl (4 μg protein). […] The mixture was incubated for 2 min at 37°C, vortexed for 10 s, and centrifuged (16,000 g) at 4°C for 15 min. 100 μl from the supernatant (solubilized fractions) was taken for Western blot analysis. Remaining pellet fractions were washed by adding homogenization buffer up to 125 μl and centrifuged again, supernatants were discarded, and pellets were resuspended in 100 μl for Western blotting.

[12] = target: Biotin-TbPEX5pep; assay: ELISA binding of GST-TbPEX14 and Biotin-TbPEX5pep; design: species or system Trypanosoma brucei; conditions: read-out: KD of GST-TbPEX14 (residue1-84) and Biotin-TbPEX5pep
Experimental: ELISA with TbPEX14–TbPEX5 was used as an independent assay to confirm compound specificity by examining the compound activity on TbPEX14–TbPEX5 interaction. TbPEX14–TbPEX5 assays were performed similarly with following changes. GST-TbPEX14_1-84 was coated, and biotinylated TbPEX5 peptide (Biotin-Aca-Aca-[…]) was used as analyte to a final concentration of 500 nM. Bound PEX5 was detected using streptavidin-conjugated alkaline phosphatase [1:2,000 v/v in PBS, 0.05% v/v Tween 20 (pH 7.4), buffer D, Promega] and p-nitrophenylphosphate (PNPP, Thermo Fisher Scientific) as a substrate, reactions stopped with 3 M NaOH and absorbance read at 405 nm.

c1ccc(-c2ncc(CNCCOc3cccc4cccnc34)cn2)nc1 [Compound 1, N-[(2-pyridin-2-ylpyrimidin-5-yl)methyl]-2-(quinolin-8-yloxy)ethanamine]
IC50 [1]: 1 µM
STD NMR effect with GST-TbPEX3 [2]: significant STD effects; also recorded: strong STD signal
Target protein (NMR analysis) [2]: TbPEX3
STD NMR effect with GST-His control [3]: not to GST-His; also recorded: not with TbPEX19 or GST
EC50 [4]: 33 µM
EC50 ([4]; Trypanosoma brucei, 72 h): 32.7 µM
Aldolase labeling phenotype (in words) [5]: diffused pattern of aldolase labeling
Hacc (hydrogen bond acceptor) [6]: 6
Hdon (hydrogen bond donor) [6]: 1
LogSw [6]: -2.69
EC50 [7]: > 200 µM

CCn1c2c(c3cc(C(=O)N4CCc5[nH]cnc5C4c4cccnc4)ccc31)CCCC2=O (stereo not shown) [Compound 3, 9-ethyl-6-[(4-pyridin-3-yl-1,4,6,7-tetrahydro-5H-imidazo[4,5-c]pyridin-5-yl)carbonyl]-2,3,4,9-tetrahydro-1H-carbazol-1-one]
IC50 [1]: 14.3 µM
STD NMR effect with GST-TbPEX3 [2]: strong line-broadening
STD NMR effect with TbPEX19-His [8]: notable STD signal
STD NMR effect with GST-His control [3]: weak line-broadening
EC50 ([4]; Trypanosoma brucei, 72 h): 38 µM
Aldolase labeling phenotype (in words) [5]: partial mislocalization of aldolase to the cytosol
Mislocalization (% of No. of cells) of aldolase [5]: ~27% and 27.5%
PEX11-GFP and matrix protein localization (in words) [9]: mislocalization of both PEX11 and matrix proteins
Hacc (hydrogen bond acceptor) [6]: 4
Hdon (hydrogen bond donor) [6]: 1
LogSw [6]: -1.77
EC50 [7]: 84.4 µM
EC50 [10]: 84 µM
Release of glycosomal matrix proteins (HK, gGAPDH) on digitonin fractionation (in words) [11]: mislocalization of the matrix protein into cytosol

Cn1ccnc1CNCCOc1cccc2cccnc12 [Compound 4, N-[(1-methyl-1H-imidazol-2-yl)methyl]-2-(quinolin-8-yloxy)ethanamine]
IC50 [1]: 0.5 µM
STD NMR effect with GST-TbPEX3 [2]: significant STD effects; also recorded: strong STD signal
Target protein (NMR analysis) [2]: TbPEX3
STD NMR effect with GST-His control [3]: not to GST-His; also recorded: not with TbPEX19 or GST
EC50 [4]: 71 µM
EC50 ([4]; Trypanosoma brucei, 72 h): 70.7 µM
Aldolase labeling phenotype (in words) [5]: patches of stained aldolase
Mislocalization (% of No. of cells) of aldolase [5]: ~14% and 14.3% and ~15%
Hacc (hydrogen bond acceptor) [6]: 4
Hdon (hydrogen bond donor) [6]: 1
LogSw [6]: -1.26
EC50 [7]: > 200 µM

COCC1CCCN(S(=O)(=O)N2CCCN(Cc3cccc(F)c3)CC2)C1 (stereo not shown) [Compound 2, 1-(3-fluorobenzyl)-4-{[3-(methoxymethyl)piperidin-1-yl]sulfonyl}-1,4-diazepane]
IC50 [1]: 37.5 µM
STD NMR effect with GST-TbPEX3 [2]: significant STD effects; also recorded: strong STD signal
Target protein (NMR analysis) [2]: TbPEX3
STD NMR effect with GST-His control [3]: not to GST-His; also recorded: not with TbPEX19 or GST
EC50 [4]: 27 µM
EC50 ([4]; Trypanosoma brucei, 72 h): 26.9 µM
Aldolase labeling phenotype (in words) [5]: mislocalization of aldolase to the cytosol
Mislocalization (% of No. of cells) of aldolase [5]: ~21% and 21.2%
PEX11-GFP and matrix protein localization (in words) [9]: partly mislocalized to cytosol
Hacc (hydrogen bond acceptor) [6]: 4
Hdon (hydrogen bond donor) [6]: 0
LogSw [6]: -1.59
EC50 [7]: > 200 µM
Release of glycosomal matrix proteins (HK, gGAPDH) on digitonin fractionation (in words) [11]: mislocalization of the matrix protein into cytosol

B1: GST-TbPEX14: GST-tagged TbPEX14 residues 1-84 (protein)
chain: MSLLLSGVVDDGKSKPEVEHTHSEREKRVSNAVEFLLDSRVRRTPTSSKVHFLKSKGLSAEEICEAFTKVGQPKTLNEIKRILS
modifications: left off: GST, end not stated, kept
Kd [12]: 0.52 ± 0.13 µM
